Source: patent US7144731B2, “SCF antibody compositions and methods of using the same” (Amgen Inc., priority 1989, dated 2006)

Experiments:
UT-7 cells = assay: UT-7 ^3H-thymidine uptake assay; format: cell-based, human
Experimental: UT-7 cells are a human megakaryocyte, huGM-CSF responsive cell line obtained from John Adamson, New York Blood Center, New York, N.Y. UT-7 cells were cultured in Iscove's Modified Dulbecco's Medium, 10% FBS, 1× glutamine, 5 \g/ml huGM-CSF. Cells are passaged twice a week at 1×10^5 cells/ml.
Cells were washed twice in phosphate buffered saline (PBS) and resuspended in RPMI medium with 4% FBS and glutamine penicillin streptomycin (GPS) (Irvine Scientific Cat No. 9316 used at 1% volume per volume) at 4×10^4 cells/ml before use. Human SCF along with specific samples were added to 4000 cells/well in 96 well plates and were cultured for 72 hrs. 0.5 uCi/well of ^3H-Thymidine was then added to each plate, plates were harvested and counted 4 hours later.

[1] = target: T1, SCF receptor (OCIM1 plasma membrane) (Homo sapiens, UniProt P10721); assay: SCF radioreceptor assay; format: binding
T1 construct: endogenous in cells; host or cells: OCIM1 human erythroleukemic cells, plasma membrane preparation
Experimental: OCIM1 cells, [Papayannopoulou et al., Blood 72:1029–1038 (1988)] are a human erythroleukemic cell line expressing many human SCF receptors per cell. These cells are grown in Iscove's Modified Dulbecco's Medium, 10% FBS, and 1× glutamine and passaged 3 times a week to 1×10^5 cells/ml.
Preparation of the OCIM1 plasma membrane is as follows with all steps performed on ice.
First, 40 T175 flasks of cells were grown-up in OCIM1 culture medium, for a total of 1.9×10^9 […]. The conditioned medium and 1 mM Phenyl Methyl Sulfonyl Fluoride (PMSF) protease inhibitor, was spun down in 8×250 ml tubes at 1000 rpm for 10 minutes at 4° C. Cells were washed with PBS and repelleted in 4×50 ml centrifuge tubes at 1000 rpm for 10 minutes at 4° C. Cells were resuspended in 20 ml ice cold PBS with glucose sodium pyruvate (Gibco Cat #310-4287). The 20 ml cell solution was put into a pre-pressurized, pre-chilled (4° C.) “cell bomb” designed to lyse the cells. Cells were pressurized at 400–650 PSI for 10 minutes to establish equilibrium. When the pressure is released cell lysis occurs.
At this point the cells were checked for the percentage of cell lysis. 90% lysis was common. The cell suspension was resuspended in 80 mls sucrose buffer (0.25M sucrose, 10 mM Tris, 1 mM EDTA in double distilled (dd) H2O, filtered through a 0.45 u filter, pH 7.0) and divided between two 40 ml screwcap tubes. Tubes were spun at 5900 RPM for 10 minutes in a Beckman J2-21 centrifuge, JA-20 rotor at 4° C. The supernatants were saved and spun one more time as above to further remove any unwanted material. Supernatants were saved and distributed equally into 2 nalgene 40 ml centrifuge tubes. These supernatants were centrifuged at 16,000 RPM 4° C. for 30 min. in J2-21 centrifuge, JA-20 rotor. These supernatants were discarded being careful to save pellets. Each pellet was resuspended in sucrose buffer so there were 20 mls per tube in 4×36 ml plastic ultracentrifuge tubes. Using a 20 ml syringe and a large trochar, the solution was carefully underlayered in each tube with ice cold 36% sucrose solution (36.1 g sucrose/100 mls ddH2O), bringing the level of the liquid to within 2 mm of the top of the tube. Without disturbing the interface, each tube was carefully placed into each of […] titanium ultracentrifuge tubes. Tubes were centrifuged at 27,000 RPM, 4° C. for 75 minutes in an ultracentrifuge. These tubes were carefully removed from the rotor and from titanium buckets, placed in a rack with the 36% sucrose interface visible. The membraneous material at the interface was collected with a pasteur pipet and transfered into 2 clean nalgene 40 ml centrifuge tubes. Volume was brought up to 40 mls with ice cold sucrose buffer. Tubes were balanced and centrifuged as before at 5900 RPM in J2-21 centrifuge. […]

mouse bone marrow cells = assay: Pre-B cell colony formation in agar cultures; format: cell-based
Excerpt: The ability of recombinant rat SCF^1-164 (rrSCF^1-164), to act synergistically with IL-7 to enhance lymphoid cell proliferation was studied in agar cultures of mouse bone marrow. In this assay, the colonies formed with rrSCF^1-164 alone contained monocytes, neutrophils, and blast-cells, while the colonies stimulated by IL-7 alone or in combination with rrSCF^1-164 contained primarily pre-B cells. Pre-B cells, characterized as B220^+, sIg^−, cμ^+, were identified by FACS analysis of pooled cells using fluorescence-labeled antibodies to the B220 antigen [Coffman, Immunol. Rev., 69, 5 (1982)] and to surface Ig (FITC-goat anti-K, Southern Biotechnology Assoc., Birmingham, Ala.); and by analysis of cytospin slides for cytoplasmic μ expression using fluorescence-labeled antibodies (TRITC-goat anti-μ, Southern Biotechnology Assoc.,). Recombinant human IL-7 (rhIL-7) was obtained from Biosource International (Westlake Village, Calif.). When rrSCF^1-164 was added in combination with the pre-B cell growth factor IL-7, a synergistic increase in colony formation was observed (Table 16), indicating a stimulatory role of rrSCF^1-164 on early B cell progenitors.

[2] = test system: 5-FU treated mouse bone marrow cells; assay: HPP-CFC assay; format: cell-based; conditions: COS-1 supernatants, concentrations tested
Excerpt: There are a variety of biological activities which can be attributed to the natural mammalian rat SCF as well as the recombinant rat SCF protein. One such activity is its effect on early hematopoietic cells. This activity can be measured in a High Proliferative Potential Colony Forming Cell (HPP-CFC) assay [Zsebo, et al., supra (1988)]. To investigate the effects of factors on early hematopoietic cells, the HPP-CFC assay system utilizes mouse bone marrow derived from animals 2 days after 5-fluorouracil (5-FU) treatment. […] The rat SCF is plated in the presence of CSF-1 or IL-6 in semi-solid agar cultures. The agar cultures contain McCoys complete medium (GIBCO), 20% fetal bovine serum, 0.3% agar, and 2×10^5 bone marrow cells/ml. The McCoys complete medium contains the following components: 1× McCoys medium supplemented with 0.1 mM pyruvate, 0.24× essential amino acids, 0.24× non-essential amino acids, 0.027% sodium bicarbonate, 0.24× vitamins, 0.72 mM glutamine, 25 μg/ml L-serine, and 12 μg/ml L-asparagine. The bone marrow cells are obtained from Balb/c mice injected i.v. with 150 mg/kg 5-FU. The femurs are harvested 2 days post 5-FU treatment of the mice and bone marrow is flushed out. The red blood cells are lysed with red blood cell lysing reagent (Becton Dickenson) prior to plating. Test substances are plated with the above mixture in 30 mm dishes. Fourteen days later the colonies (>1 mm in diameter) which contain thousands of cells are scored. This assay was used throughout the purification of natural mammalian cell-derived rat SCF.

human bone marrow = assay: Human bone marrow colony assay; format: cell-based; conditions: for Colony #/100,000 cells ± SD: COS-1 CM, 20 U/ml EPO, 14 days, colonies ≥0.2 mm
Experimental: The cDNA of human SCF corresponding to amino acids 1–162 obtained by PCR reactions outlined in Example 3D, was expressed in COS-1 cells as described for the rat SCF in Example 4. COS-1 supernatants were assayed on human bone marrow as well as in the murine HPP-CFC and MC/9 assays. […] The culture conditions of the assay were as follows: human bone marrow from healthy volunteers was centrifuged over Ficoll-Hypaque gradients (Pharmacia) and cultured in 2.1% methyl cellulose, 30% fetal calf serum, 6×10^−5 M 2-mercaptoethanol, 2 mM glutamine, ISCOVE'S medium (GIBCO), 20 U/ml EPO, and 1×10^5 cells/ml for 14 days in a humidified atmosphere containing 7% O2, 10% CO2, and 83% N2. Only those colonies of 0.2 mm in size or larger are indicated.
Recombinant human SCF was tested in agar colony assays on human bone marrow in combination with other growth factors as described above.

KG-1 = KG-1 soft agar cloning assay; format: cell-based, human; conditions: COS-1 supernatant
Experimental: Another activity of recombinant human SCF is the ability to cause proliferation in soft agar of the human acute myelogenous leukemia (AML) cell line, KG-1 (ATCC CCL 246). COS-1 supernatants from transfected cells were tested in a KG-1 agar cloning assay [Koeffler et al., Science, 200, 1153–1154 (1978)] essentially as described except cells were plated at 3000/ml.

[3] = test system: murine mast cell line, MC/9; assay: MC/9 ^3H-thymidine uptake assay; format: cell-based; conditions: COS-1 supernatants, concentrations tested
Experimental: Another useful biological activity of both naturally-derived and recombinant rat SCF is the ability to cause the proliferation of the […] murine mast cell line, MC/9 (ATCC CRL 8306). MC/9 cells are cultured with a source of […] according to the ATCC CRL 8306 protocol. The medium used in the bioassay is RPMI 1640, 4% fetal bovine serum, 5×10^−5M 2-mercaptoethanol, and 1× glutamine-pen-strep. The MC/9 cells proliferate in response to SCF without the requirement for other growth factors. This proliferation is measured by first culturing the cells for 24 h without growth factors, plating 5000 cells in each well of 96 well plates with test sample for 48 h, pulsing for 4 h with 0.5 uCi ^3H-thymidine (specific activity 20 Ci/mmol), harvesting the solution onto glass fiber filters, and then measuring specifically-bound radioactivity. This assay was used in the purification of mammalian cell derived rat SCF after the ACA 54 gel filtration step, section C2 of this Example. Typically, SCF caused a 4–10 fold increase in CPM over background.

normal human bone marrow = assay: Human CFU-GM assay; format: cell-based; conditions: average of triplicate cultures; SCF = COS-1 supernatant 4 days after transfection

## SCF^1-137: E. coli human SCF analog, amino acids 1 to 137
UT-7 cells
  specific activity in the UT-7 assay: about 25 % of the value for SCF^1-164
[1]
  specific activity in the radioreceptor assay: full specific activity

## SCF^11-164: E. coli human SCF analog, amino acids 11 to 164
UT-7 cells
  specific activity in the UT-7 assay: negligible specific activity
[1]
  specific activity in the radioreceptor assay: negligible specific activity

## rhIL-7: Recombinant human IL-7 from Biosource International
Mouse bone marrow cells; 25 ng
  Colony Number per 5 × 10^4 mouse bone marrow cells plated: 4 ± 2
Mouse bone marrow cells; 50 ng
  Colony Number per 5 × 10^4 mouse bone marrow cells plated: 13 ± 6
Mouse bone marrow cells; 100 ng
  Colony Number per 5 × 10^4 mouse bone marrow cells plated: 18 ± 6
Mouse bone marrow cells; 200 ng, mean of triplicate dishes ± SD
  Colony Number per 5 × 10^4 mouse bone marrow cells plated: 21 ± 6

## SCF^1-248: full length recombinant human stem cell factor formed in E. coli
UT-7 cells; final material after cation exchange chromatography
  activity in the UT-7 assay: no activity
UT-7 cells; material following anion exchange chromatography
  activity in the UT-7 assay: active

## V19.8 human SCF^1-162: recombinant human SCF amino acids 1–162, COS-1 supernatant
[2]
  activity in murine HPP-CFC assay: not active
Human bone marrow; 50 μl assayed
  Colony #/100,000 cells ± SD: 22 ± 3
Human bone marrow; 100 μl assayed
  Colony #/100,000 cells ± SD: 33 ± 7
Human bone marrow; COS-1 supernatants
  activity on human bone marrow: active on human bone marrow
KG-1; 1.5 μl assayed
  Colony #/3000 Cells ± SD: 6 ± 6
KG-1; 3 μl assayed
  Colony #/3000 Cells ± SD: 6 ± 4
KG-1; 6 μl assayed
  Colony #/3000 Cells ± SD: 9 ± 5
KG-1; 12 μl assayed
  Colony #/3000 Cells ± SD: 8 ± 0
KG-1; 25 μl assayed, triplicate
  Colony #/3000 Cells ± SD: 14 ± 0
[3]
  activity in murine MC/9 assay: not active

## hSCF: Recombinant human SCF tested in agar colony assays; form not stated at Table 13
Human bone marrow; agar colony assay, factors alone or combined
  Colony #/10^5 cells (14 Days): 0

B1: CSF-1: human macrophage colony-stimulating factor (protein, UniProt P09603 33-554, looked up)
Macrophage colony-stimulating …: EEVSEYCSHMIGSGHLQSLQRLIDSQMETSCQITFEFVDQEQLKDPVCYLKKAFLLVQDIMEDTMRFRDNTPNAIAIVQLQELSLRLKSCFTKDYEEHDKACVRTFYETPLQLLEKVKNVFNETKNLLDKDWNIFSKNCNNSFAECSSQDVVTKPDCNCLYPKAIPSSDPASVSPHQPLAPSMAPVAGLTWEDSEGTEGSSLLPGEQPLHTVDPGSAKQRPPRSTCQSFEPPETPVVKDSTIGGSPQPRPSVGAFNPGMEDILDSAMGTNWVPEEASGEASEIPVPQGTELSPSRPGGGSMQTEPARPSNFLSASSPLPASAKGQQPADVTGTALPRVGPVRPTGQDWNHTPQKTDHPSALLRDPPEPGSPRISSLRPQGLSNPSTLSAQPQLSRSHSSGSVLPLGELEGRRSTRDRRSPAEPEGGPASEGAARPLPRFNSVPLTDTGHERQSEGSFSPQLQESVFHLLVPSVILVLLAVGGLLFYRWRRRSHQEPQRADSPLEQPEGSPLTQDDRQVELPV
Normal human bone marrow
  Colony #/100,000 cells (±SEM): 0
